Measured values published in PubChem BioAssay AID2060511 (Molecular Pharmacology Branch, DTP, NCI, 2025).

Tested on: 422866-222-R5-J1-PDC spheroids with HUVEC/MSC, viability
Assay: Anticancer human tumor 422866-222-R5-J1-PDC patient-derived pancreatic adenocarcinoma cell line growth inhibition [GQUAD]
Conditions: for IC50: curve of first compound; for viability, T/C: stronger effect = lower value
Outline: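 Tumor cells were grown as complex spheroids with HUVEC endothelial cells and mesenchymal stem cells as stroma. G-quadruplex stabilizers were combined with targeted agents over half-log dilutions from near the clinical Cmax, or from 10 microM.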

[1] = second compound 0.0316 µM, first compound 0.0316 µM
[2] = second compound 0.0316 µM, first compound 0.1 µM
[3] = second compound 0.0316 µM, first compound 0.316 µM
[4] = second compound 0.0316 µM, first compound 1 µM
[5] = second compound 0.0316 µM, first compound 3.16 µM
[6] = second compound 0.0316 µM, first compound 10 µM
[7] = second compound 0.1 µM, first compound 0.0316 µM
[8] = second compound 0.1 µM, first compound 0.1 µM
[9] = second compound 0.1 µM, first compound 0.316 µM
[10] = second compound 0.1 µM, first compound 1 µM
[11] = second compound 0.1 µM, first compound 3.16 µM
[12] = second compound 0.1 µM, first compound 10 µM
[13] = second compound 0.316 µM, first compound 0.0316 µM
[14] = second compound 0.316 µM, first compound 0.1 µM
[15] = second compound 0.316 µM, first compound 0.316 µM
[16] = second compound 0.316 µM, first compound 1 µM
[17] = second compound 0.316 µM, first compound 3.16 µM
[18] = second compound 0.316 µM, first compound 10 µM
[19] = second compound 1 µM, first compound 0.0316 µM
[20] = second compound 1 µM, first compound 0.1 µM
[21] = second compound 1 µM, first compound 0.316 µM
[22] = second compound 1 µM, first compound 1 µM
[23] = second compound 1 µM, first compound 3.16 µM
[24] = second compound 1 µM, first compound 10 µM
[25] = second compound 3.16 µM, first compound 0.0316 µM
[26] = second compound 3.16 µM, first compound 0.1 µM
[27] = second compound 3.16 µM, first compound 0.316 µM
[28] = second compound 3.16 µM, first compound 1 µM
[29] = second compound 3.16 µM, first compound 3.16 µM
[30] = second compound 3.16 µM, first compound 10 µM
[31] = second compound 10 µM, first compound 0.0316 µM
[32] = second compound 10 µM, first compound 0.1 µM
[33] = second compound 10 µM, first compound 0.316 µM
[34] = second compound 10 µM, first compound 1 µM
[35] = second compound 10 µM, first compound 3.16 µM
[36] = second compound 10 µM, first compound 10 µM
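Also: spheroids exposed to compounds for seven days before reading.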
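For viability, T/C in this document: percent viability relative to DMSO vehicle control taken as 100%.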

Structure (SMILES): Nc1ccn(C2OC(CO)C(O)C2(F)F)c(=O)n1 (centres undefined) + CN(C)c1ccc(Nc2c3ccc(NC(=O)CCN4CCCC4)cc3nc3cc(NC(=O)CCN4CCCC4)ccc23)cc1
- IC50 (second compound 0.0316 µM): 3230 nM
- IC50 (second compound 0.1 µM): 869 nM
- IC50 (second compound 0.316 µM): 1080 nM
- IC50 (second compound 1 µM): 451 nM
- IC50 (second compound 3.16 µM): 277 nM
- IC50 (second compound 10 µM): > 10000 nM
- viability, T/C [1]: 89.5%
- viability, T/C [2]: 71.6%
- viability, T/C [3]: 74.6%
- viability, T/C [4]: 54.4%
- viability, T/C [5]: 52.5%
- viability, T/C [6]: 41.5%
- viability, T/C [7]: 104%
- viability, T/C [8]: 70.8%
- viability, T/C [9]: 66.5%
- viability, T/C [10]: 43.5%
- viability, T/C [11]: 44.6%
- viability, T/C [12]: 39.2%
- viability, T/C [13]: 91.4%
- viability, T/C [14]: 68.4%
- viability, T/C [15]: 54.4%
- viability, T/C [16]: 57.1%
- viability, T/C [17]: 48.2%
- viability, T/C [18]: 36.5%
- viability, T/C [19]: 72.7%
- viability, T/C [20]: 59%
- viability, T/C [21]: 57.6%
- viability, T/C [22]: 39.6%
- viability, T/C [23]: 41.3%
- viability, T/C [24]: 34.7%
- viability, T/C [25]: 75.6%
- viability, T/C [26]: 67.6%
- viability, T/C [27]: 48.7%
- viability, T/C [28]: 35%
- viability, T/C [29]: 39.4%
- viability, T/C [30]: 39.2%
- viability, T/C [31]: 73.6%
- viability, T/C [32]: 57.9%
- viability, T/C [33]: 57.9%
- viability, T/C [34]: 50.9%
- viability, T/C [35]: 51.8%
- viability, T/C [36]: 49%

Structure (SMILES): C=CC(=O)N1CCN(c2nc(=O)n(-c3c(C)ccnc3C(C)C)c3nc(-c4c(O)cccc4F)c(F)cc23)C(C)C1 (centres undefined) + Cc1[nH]c2ccc(F)cc2c1-c1nc2c3cccnc3c3ncccc3c2[nH]1
- IC50 (second compound 0.0316 µM): < 31.6 nM
- IC50 (second compound 0.1 µM): < 31.6 nM
- IC50 (second compound 0.316 µM): < 31.6 nM
- IC50 (second compound 1 µM): < 31.6 nM
- IC50 (second compound 3.16 µM): < 31.6 nM
- IC50 (second compound 10 µM): < 31.6 nM
- viability, T/C [1]: 43.8%
- viability, T/C [2]: 32.5%
- viability, T/C [3]: 25.1%
- viability, T/C [4]: 28.4%
- viability, T/C [5]: 29.4%
- viability, T/C [6]: 28.1%
- viability, T/C [7]: 41.1%
- viability, T/C [8]: 33.6%
- viability, T/C [9]: 24.9%
- viability, T/C [10]: 26.5%
- viability, T/C [11]: 29.1%
- viability, T/C [12]: 31.7%
- viability, T/C [13]: 44.1%
- viability, T/C [14]: 29.1%
- viability, T/C [15]: 24.8%
- viability, T/C [16]: 24.1%
- viability, T/C [17]: 30.1%
- viability, T/C [18]: 29.8%
- viability, T/C [19]: 38.1%
- viability, T/C [20]: 30.4%
- viability, T/C [21]: 26.8%
- viability, T/C [22]: 25.3%
- viability, T/C [23]: 28%
- viability, T/C [24]: 30.9%
- viability, T/C [25]: 32.6%
- viability, T/C [26]: 27.4%
- viability, T/C [27]: 25.8%
- viability, T/C [28]: 27.5%
- viability, T/C [29]: 28.8%
- viability, T/C [30]: 25.7%
- viability, T/C [31]: 27.2%
- viability, T/C [32]: 29.6%
- viability, T/C [33]: 26.3%
- viability, T/C [34]: 26.3%
- viability, T/C [35]: 28.1%
- viability, T/C [36]: 27.9%
